Key:
[1] = tested on: CCRF-CEM cells; experiment: Competition of cold 2F-AraG with 8-[3H]-AraG uptake, CCRF-CEM; type: cell-based; conditions: increasing 2F-AraG 1-100 µM, 60 or 120 minutes
Experimental: FIG. 2.3A illustrates a graph of 5 × 10^5CCRF-CEM cells were incubated, in triplicate, with 1uCi 8H^3-AraG (1mCi/ml) and increasing amounts of cold 2F-AraG or DMSO for either 60 or 120 minutes. Percent of control uptake was calculated as: measured cpm of sample/ cpm accumulated 1uCi 8[H^3]-AraG control x 100.
Previously we successfully synthesized a novel ^18F derivative of 2-deoxyguanosine analog, 9-β-D-arabinofuranosylguanine (“^18F-AraG” or “[^18F]F—AraG)”, to use as a molecular probe (FIG. 2.1). [^18F]AraG cell uptake was evaluated in leukemia cell line, CCRF-CEM, and was compared with [^3H]AraG cell uptake. […] To determine whether cold derivative 2F-AraG competes with the uptake of 8-[^3H]—AraG, we studied the [^3H]-Arag uptakes by CCRF-CEM, MOLT-4 (Leukemia cell line) and Raji (human Burkitt’s lymphoma cell line) and competition with cold 2F-AraG (FIGS. 2.3A and 2.3B). […] Competition assays indicate that cold derivative 2F-Arag competes with the uptake of the 8-[^3H]—AraG, indicating similar uptake pathways.

[2] = some patients; cited from earlier work
[3] = tested on: heart; conditions: cited from earlier work
[4] = biological target: T1, deoxyguanosine kinase (dGK) (Homo sapiens, UniProt Q16854); experiment: Enzyme kinetics of dGK; type: biochemical; conditions: dGuo positive control, unit not given
T1 sequence (Q16854 40-277): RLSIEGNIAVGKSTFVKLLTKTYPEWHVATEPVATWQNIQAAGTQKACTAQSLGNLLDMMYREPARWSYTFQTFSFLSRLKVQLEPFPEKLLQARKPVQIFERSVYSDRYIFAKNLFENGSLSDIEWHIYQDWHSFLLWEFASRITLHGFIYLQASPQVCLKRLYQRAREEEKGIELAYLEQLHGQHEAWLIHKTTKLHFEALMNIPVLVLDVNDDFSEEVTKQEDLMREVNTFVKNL
Text: […]. Lines indicate best fit. […]. Lines indicate best fit. […].

[5] = tested on: colon cancer model; type: in vivo, mice; conditions: tumors and tumor draining lymph nodes
Text: FIGS. 13A-13D show data from embodiments of the invention. FIG. 13A. […] FIG. 13B. […] White circles indicate tumor draining lymph nodes, yellow arrows point to tumors. FIG. 13C.
The discovery of the immune response that results from chemotherapy-induced tumor cell death, termed immunogenic cell death (32), has sparked interest in harnessing chemotherapy’s immunomodulatory effects for possible synergistic combinations with immunotherapeutics (33,34).

[6] = substrate: Nc1nc2c(ncn2[C@H]2C[C@H](O)[C@@H](CO)O2)c(=O)[nH]1; experiment: purified protein, by the assay type; conditions: other: dGuo positive control, unit inferred

In the case of Nc1nc2c(ncn2[C@@H]2O[C@H](CO)[C@@H](O)[C@@H]2F)c(=O)[nH]1 [2F-AraG, 2′-Deoxy-2′-fluoro-9-β-D-arabinofuranosylguanine], the “Effect on [3H]-AraG uptake” value [1] is reported as “decrease”.

In the case of Nc1nc2c(ncn2[C@@H]2O[C@H](CO)[C@@H](O)[C@@H]2O)c(=O)[nH]1 [AraG, 9-(β—D—Arabinofuranosyl)guanine], the “Therapeutic serum level at which neurotoxic side effects are reported” value [2] is given as ~ 150 µM.

In the case of CC(C)Oc1cccc(C=NCC(C)(C)CNCCNCC(C)(C)CN=Cc2cccc(OC(C)C)c2[O-])c1[O-].[68Ga+3].[I-] [^68Ga-Galmydar], the “Cardiac uptake of tracer in doxorubicin treated animals” value ([3]; preclinical studies) is given as “reduction in cardiac uptake”.

For Nc1nc2c(ncn2[C@H]2C[C@H](O)[C@@H](CO)O2)c(=O)[nH]1 [dGuo, 2′-deoxyguanosine], the “Vmax of dGK” value [4] was 123.2.

For COc1cccc2c1C(=O)c1c(O)c3c(c(O)c1C2=O)C[C@@](O)(C(=O)CO)C[C@@H]3O[C@H]1C[C@H](N)[C@H](O)[C@H](C)O1 [doxorubicin], the “Effect of treatment on 18FDG uptake in the heart” value ([3]; in vivo) is listed as “increase”.

For Paclitaxel/carboplatin, the “Change in [18F]F-AraG signal intensity after treatment” value [5] was “did not lead to appreciable changes”.

B1: deoxyguanosine kinase (dGK) (Homo sapiens) (protein)
chain: T1 sequence (Q16854 40-277)
B1 gave a Km [6] of 5.08 µM.

— patent US20230309833A1, “METHODS AND MATERIALS FOR USING [18F]-F-ARAG IN CARDIAC IMAGING” (CELLSIGHT TECHNOLOGIES INC., priority 2020, published 2023)
